Results taken from paper PMC5889877, “Ex Vivo Cardiotoxicity of Antineoplastic Casiopeinas Is Mediated through Energetic Dysfunction and Triggered Mitochondrial-Dependent Apoptosis” (Oxidative Medicine and Cellular Longevity, 2018).
Like-named read-outs stand apart in the source and are kept apart here. Marks after values point to notes of the source that are not given here.

Experiments:
isolated cardiomyocytes = assay: LDH release (CytoTox-ONE); assay type: cell-based, rat; settings: cardiomyocytes treated at IC50 (II-gly 2 μM, Doxo 10 μM)
Source text: (§1) Ventricular cardiomyocytes were obtained from male Wistar rats (250–300 g) by digestion with collagenase type II as previously described. Cells were washed in Tyrode solution (mM): 130 NaCl, 5.4 KCl, 0.4 NaH2PO4, 0.5 MgCl2, 25 HEPES, and 5 glucose with pH 7.4. After isolation, cells were cultivated at a density of 3.2 × 10^3 viable cells/well in 96-well plates pretreated with laminin in M-199 medium supplemented in mM with 5 taurine, 5 creatine, 2 L-carnitine, 2.5 sodium pyruvate, and penicillin-streptomycin at 100 U·ml^−1 and 100 μg·ml^−1, respectively, at 37°C, with 5% CO2 and 95% air. After incubation for three hours, varying concentrations of Cas were tested in triplicate, exposing the myocytes during 24 hours to each treatment. At the end of the incubation period, the cytotoxicity of Cas was measured using the Alamar Blue viability test (Life Technologies, Carlsbad, CA, USA). Release of cytoplasmic lactate dehydrogenase (LDH) was determined using CytoTox-ONE homogeneous membrane integrity kit (Promega Madison, WI, USA). The activity of caspases 3/7 and caspase 9 was measured in cell lysates using caspase-Glo 3/7 and caspase-Glo 9 test luminescent assay (Promega, Madison, WI, USA), respectively. The cardiomyoblast cell line H9c2 (ATCC CRL-1446) was maintained using standard procedures in DMEM supplemented with 10% fetal bovine serum prior to the oxidative stress experiments.

isolated rat hearts [1] = assay: Langendorff-perfused isolated rat heart: mechanical performance (RPP, HR, ±dP/dt, cardiac efficiency); settings: for IC50: read-out: IC50, half-maximal inhibitory concentration for RPP (heart contractile function); for decrease of cardiac efficiency (CE): at IC50 for RPP; for +dP/dt × 1000 (contraction rate) / Cardiac efficiency / −dP/dt × 1000 (relaxation rate): hearts treated at the IC50; for t 0.5, time for half-inhibition of RPP / RPP reduction from baseline: 5 μM; for heart rate (HR) reduction: perfused at 5 μM
Experimental: (§2) Male Wistar rats (250–300 g) were injected with heparin (10^3 U·kg^−1, i.p.) 20 minutes prior to anesthesia with pentobarbital (100 mg·kg^−1, i.p.). When bilateral corneal reflex was absent, the heart was excised through an abdominal approach. Then, the ascending aorta was visualized and cut and the heart was placed in a cardioplegic solution. To avoid ischemia, the time between cutting the diaphragm to placing the heart in the solution was less than 60 seconds. The hearts were mounted in accordance with the Langendorff model and perfused at a constant flow (12 ml·min^−1) with a Krebs-Henseleit buffer as previously described. A latex balloon connected to a pressure transducer filled with saline solution was inserted into the left ventricle after establishing autonomous contraction. The pulmonary artery was cannulated and connected to a closed chamber using a Clark-type oxygen electrode (Yellow Springs Instruments, Yellow Springs, Ohio) to measure myocardial oxygen consumption (MVO2) in the coronary effluent. The rate of MVO2 was calculated as the difference between the concentration in the K-H buffer before (100%) and after perfusion. Data Trax software (WPI, Sarasota, Florida) was used for continuous recording of the heart rate (HR), left ventricular pressure (LVP), MVO2, and maximum positive and negative derivative of left ventricular pressure (±dP/dt). The baseline was established during 10–15 minutes of K-H perfusion. Each concentration of Cas or Doxo remained in the heart for 30 min. Hearts in the control group were perfused with K-H buffer during the whole experimental time. Rate pressure product (RPP = HR × LVP) and cardiac efficiency ([…]) were calculated as previously reported.

[2] = system: mitochondrial permeability transition pore; assay: Mitochondrial Ca2+ retention capacity (MPT opening); design: species or system rat; settings: for decrease of mitochondrial Ca2+ retention capacity: mitochondria from hearts treated at IC50, versus control
Experimental: (§3) To measure mitochondrial oxygen consumption, mitochondrial membrane potential, and Ca^2+ uptake, cytochrome c samples were prepared as follows: after perfusion, heart tissue from the left ventricle was minced and homogenized in cold mitochondrial isolation medium (in mM: 125 KCl, 1 EDTA, and 10 HEPES-HCl; pH 7.3). The mitochondrial fraction was obtained by differential centrifugation using the protease Nagarse, as previously described. Mitochondrial oxygen consumption was measured using a Clark-type oxygen electrode. The experiments were carried out in respiration assay medium containing 125 KCl, 10 HEPES-HCl, and 3 KH2PO4 (in mM) with pH 7.3. State 4 respiration was measured in the presence of 10 mM glutamate-malate, and state 3 respiration was evaluated after addition of 100 μM ADP. Maximal respiration was determined with 0.08 μM of carbonyl cyanide m-chlorophenyl hydrazine (CCCP). The mitochondrial membrane potential was measured by fluorometry using 5 μM safranine. Mitochondrial Ca^2+ uptake was determined with the metalochromic indicator, Arsenazo III, or calcium green 5N (5N-CG), using a medium containing 50 μM Arsenazo or 10 μM 5N-CG, 10 mM succinate plus rotenone (0.1 μg·ml^−1), 200 μM ADP, and 0.25 μg oligomycin A. Pulses of 10 nmol Ca^+2 were added every 3 minutes to reach a Ca^+2 release due to MPT opening. Mitochondrial cytochrome c quantification from Cas-treated hearts was performed using Western blot analysis as described previously. The blots were developed with Luminata crescendo substrate (Merck Millipore, Darmstadt, Germany) and detected with VisionWorks LS-UVP Chimio System (BioSpectrum 415 Imaging System, Cambridge, UK).

[3] = system: mitochondria isolated from Cas-treated hearts; assay: Respiratory activity of mitochondria isolated from treated hearts (Clark-type oxygen electrode); design: species or system rat; settings: for Max. respiration: 0.08 μM CCCP; for State 4 respiration: 10 mM glutamate-malate; for Respiratory control / State 3 respiration: malate/glutamate; for State 3 respiration: after 100 μM ADP
Experimental: as §3

aconitase = assay: Mitochondrial aconitase activity in heart homogenates; settings: ex vivo heart, Cas at IC50, Doxo 5 μM
Experimental: (§4) To measure the energetic metabolites ATP, phosphocreatine (PCr), and aconitase activity at the end of the perfusion protocols, samples were prepared as follows: the hearts were removed from the perfusion system by cutting the aorta and immediately flash-frozen with liquid N2, weighed, and stored at −80°C. Afterward, the hearts were homogenized in ice-cold buffer containing 250 mM sucrose, 10 mM HEPES, and 1 mM EDTA (pH 7.4). For enzymatic determination, aliquots of the homogenate were immediately frozen in liquid nitrogen and stored at −80°C. Quantification of ATP and PCr was carried out in a HPLC system with a dual-pump gradient (Waters Chromatography, Toronto, Canada) as previously described.

[4] = system: adult rat ventricular myocytes; assay: Cardiomyocyte viability, Alamar Blue; assay type: cell-based; settings: 24 h treatment, read-out: LD50 (IC50) for cardiomyocyte viability
Source text: as §1

subcutaneous tumors = settings: nude mice ref 30; cited from earlier work
isolated rat hearts [5] = assay: Myocardial oxygen consumption and energetic metabolites (ATP, PCr) in perfused hearts; settings: Cas at IC50, Doxo 5 μM
Experimental: as §2, §4

H9c2 cells = assay: Mitochondrial anion superoxide production, MitoSOX flow cytometry; assay type: cell-based; settings: for increase in MitoSOX mean intensity (anion superoxide production): H9c2, acute, Antimycin A 10 μg/mL, Doxo 5 μM
Experimental: (§5) Thiol groups in the adenine nucleotide translocase were measured by eosin 5-maleimide interaction (EMA) with cysteine residues susceptible to oxidative stress or oxidizing agents [21] and followed by SDS/PAGE electrophoresis. […] Experiments for anion superoxide production were performed in intact cardiomyoblasts using the fluorescent probe MitoSOX (Molecular Probes) in the flow cytometer. H9c2 cells were loaded with MitoSOX during 15 min at 37°C with a cell density of 100,000 cells/mL (final concentration of MitoSOX 5 μM). Afterwards, the cells were subjected to Cas III-Ea treatment (4 or 20 μM); DOXO (5 μM) and Antimycin A (10 μg/mL) were used as positive controls. Finally, the cells were washed and analyzed on a FACSCanto II (BD Biosciences). FACS data was analyzed using FlowJo version 10.0 (Tree Star).

cytochrome c = assay: Mitochondrial cytochrome c content by Western blot; design: species or system rat; settings: heart mitochondria after 30 min perfusion at IC50
Experimental: as §3, with “Mitochondrial cytochrome c quantification from Cas-treated hearts was performed using Western blot analysis as described previously. The blots were developed with Luminata crescendo substrate (Merck Millipore, Darmstadt, Germany) and detected with VisionWorks LS-UVP Chimio System (BioSpectrum 415 Imaging System, Cambridge, UK).” left out

caspases 3 and 7 = assay: Caspase-Glo 3/7 activity in cell lysates; assay type: cell-based, rat; settings: cardiomyocytes treated at IC50, compared to Doxo or the control
Source text: as §1

caspase 9 = assay: Caspase-Glo 9 activity in cell lysates; assay type: cell-based, rat; settings: cardiomyocytes treated at IC50
Source text: as §1

[6] = target: T1, adenine nucleotide translocase (Rattus norvegicus, UniProt Q05962); assay: Thiol groups of adenine nucleotide translocase (eosin 5-maleimide); settings: mitochondria from hearts treated at IC50
T1 construct: adenine nucleotide translocase from mitochondria isolated from Cas-treated hearts; from tissue; host or cells: mitochondria isolated from Casiopeina-perfused rat hearts
T1 sequence (Q05962 1-298): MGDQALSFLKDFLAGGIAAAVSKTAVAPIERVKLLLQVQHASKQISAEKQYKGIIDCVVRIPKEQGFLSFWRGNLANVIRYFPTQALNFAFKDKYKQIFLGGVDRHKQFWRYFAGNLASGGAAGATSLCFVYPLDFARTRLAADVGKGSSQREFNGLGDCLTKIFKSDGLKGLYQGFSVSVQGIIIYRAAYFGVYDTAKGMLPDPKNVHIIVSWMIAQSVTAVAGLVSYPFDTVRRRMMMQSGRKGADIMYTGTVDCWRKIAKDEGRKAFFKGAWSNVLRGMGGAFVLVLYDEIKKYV
Experimental: as §5

[7] = system: mitochondria isolated from treated hearts; assay: Mitochondrial membrane potential (safranine fluorometry); design: species or system rat
Experimental: as §3, with “Mitochondrial cytochrome c quantification from Cas-treated hearts was performed using Western blot analysis as described previously. The blots were developed with Luminata crescendo substrate (Merck Millipore, Darmstadt, Germany) and detected with VisionWorks LS-UVP Chimio System (BioSpectrum 415 Imaging System, Cambridge, UK).” left out

[8] = mitochondria from treated hearts, CsA 0.5 μM added in vitro
[9] = isolated rat heart, at 30 min perfusion
[10] = mitochondria from CsA-III-Ea-treated hearts
[11] = mitochondria from hearts perfused with 10 μM III-Ea alone

SMILES | increase in LDH release compared to the control (isolated cardiomyocytes) [fold] | decrease of cardiac efficiency (CE) (isolated rat hearts [1]) [%] | +dP/dt × 1000 (contraction rate) (isolated rat hearts [1]) | Cardiac efficiency (isolated rat hearts [1]) | −dP/dt × 1000 (relaxation rate) (isolated rat hearts [1]) | t 0.5, time for half-inhibition of RPP (isolated rat hearts [1]; isolated rat heart) | heart rate (HR) reduction (isolated rat hearts [1]) | protective effect of CsA on Ca2+ retention capacity [2, 8] [%] | Max. respiration [3] | State 4 respiration [3] [nmol O min^−1·mg^−1] | Respiratory control [3] | State 3 respiration [3] | additional MVO2 to generate the same contractile force compared to control hearts (RPP/MVO2 ratio) (isolated rat hearts [5]) [fold] | change in MVO2 (isolated rat hearts [5]) | decrease in ATP content (isolated rat hearts [5]) [%] | increase in MitoSOX mean intensity (anion superoxide production) (H9c2 cells) [fold] | IC50 (isolated rat hearts [1]; [9]) [µM] | decrease of mitochondrial Ca2+ retention capacity [2] [%] | IC50 [4] [µM] | also measured
COc1cccc2c1C(=O)c1c(O)c3c(c(O)c1C2=O)C[C@@](O)(C(=O)CO)C[C@@H]3O[C@H]1C[C@H](N)[C@H](O)[C@H](C)O1 [Doxo, Doxorubicin, reference compound] | 4.7 | 55 | 2.1 ± 0.23^∗ mmHg·s^−1 | 2.8 ± 0.1^∗ RPP · MVO2 ^−1 | −0.8 ± 0.18^∗ mmHg·s^−1 | 18.6 ± 4.0^d min | 24% | 51 | 25 ± 15.1^∗ nmol O min^−1·mg^−1 | 18 ± 2.0 | 1 ± 0.3^∗ | 25 ± 8.8^∗ nmol O min^−1·mg^−1 | 1.8 | no changes | 74 | 4 | – | – | – | IC50 (isolated rat hearts [1]; Rattus norvegicus, 0.5 h): 5 ± 0.3 µM; aconitase activity (aconitase): decreased; IC50 ([4]; Rattus norvegicus, Ventricular myocyte): 10 ± 0.5 µM; reduction of the volume of subcutaneous tumors (subcutaneous tumors): 20%; PCr levels (isolated rat hearts [5]): decreased
Cc1ccnc2c1ccc1c(C)ccnc12.NCC(=O)[O-].O.O.O=[N+]([O-])[O-].[Cu+2] [Cas II-gly, Aqua(4,7-dimethyl-1,10-phenanthroline)(glycinate)copper(II)nitrate] | 3.5 | 23 | 2.0 ± 0.13^∗ mmHg·s^−1 | 4.8 ± 0.81 RPP · MVO2 ^−1 | −0.7 ± 0.09^∗ mmHg·s^−1 | 29 ± 1.0^d min | not affected | 60 | – | 13.0 ± 5.0 | 1.6 ± 0.3^∗ | 20.2 ± 7.3^∗ nmol O min^−1·mg^−1 | – | – | – | – | 5.5 ± 0.5 | 46.5 | 2 ± 0.5 | mitochondrial cytochrome c content (cytochrome c): reduction of cytochrome c; increase in activity of caspases 3 and 7 (caspases 3 and 7): ~ 4 fold; decrease in state 3 respiration rate ([3]; versus control): 77%; reduction in maximal respiration ([3]; versus control): 82%; increase in caspase 9 activity (caspase 9): 1.7 fold; PCr/ATP ratio (isolated rat hearts [5]): augmented
CC(=O)C=C(C)[O-].Cc1ccnc2c1ccc1c(C)ccnc12.O.O.O=[N+]([O-])[O-].[Cu+2] [Cas III-Ea, Aqua(4,7-dimethyl-1,10-phenanthroline)(acetylacetonate)copper(II)nitrate] | – | 47 | 2.4 ± 0.23^∗ mmHg·s^−1 | 3.3 ± 0.2^∗ RPP · MVO2 ^−1 | −0.8 ± 0.13^∗ mmHg·s^−1 | 21 ± 5.0^d min | not affected | – | 48.3 ± 5.7^∗ nmol O min^−1·mg^−1 | 24.5 ± 5.4 | 1.5 ± 0.2^∗ | 37.3 ± 2.7^∗ nmol O min^−1·mg^−1 | 1.47 | no changes | 56 | – | 1.3 ± 0.2 | 50.5 | 2 ± 0.4 | t 0.5 of decline of contractility (RPP) (isolated rat hearts [1]; 1 μM CsA perfused 10 min, then 10 μM III-Ea): 11.98 min; RPP reduction from baseline (isolated rat hearts [1]; at 20 min): 48%; RPP reduction from baseline (isolated rat hearts [1]; at 30 min): 97%; t 0.5 of decline of contractility (RPP) (isolated rat hearts [1]; 10 μM III-Ea alone): 9.65 min; more calcium tolerated than mitochondria from III-Ea hearts [2, 10]: 69%; calcium retention capacity ([2]; mitochondria from CsA-III-Ea-treated hearts (1 μM CsA before 10 μM III-Ea)): 226 ± 13 nmol/mg; calcium retention capacity [2, 11]: 133 ± 14 nmol/mg; delay in the opening of MPT in the presence of CsA [2, 8]: 1.8 fold; oxidation state of adenine nucleotide translocase thiol groups [6]: twofold increase; change in anion superoxide production (MitoSOX) (H9c2 cells; H9c2 intact cells, 4 or 20 μM): no change; mitochondrial membrane potential after addition of 10 μM Ca2+ [7, 10]: remained polarized; mitochondrial membrane potential after addition of 10 μM Ca2+ [7, 11]: depolarization
CCCCCC[C@H]1C(=O)O[C@H](C)[C@H](NC(=O)c2cccc(NC=O)c2O)C(=O)O[C@@H](C)[C@@H]1OC(=O)CC(C)C [Antimycin A] | – | – | – | – | – | – | – | – | – | – | – | – | – | – | – | 9 | – | – | – | –
